System: Botrytis cinerae
Experiment: Fungicidal activity against Cucumber Gray Mold Rot (CGM) disease
Assay type: in vivo
Conditions: Cucumber Gray Mold Rot; concentration 50 ppm
Protocol: Botrytis cinerae, which was isolated from cucumber infected thereby, was inoculated on a PDA agar medium and cultured under a 12L/12D cycle at 25° C. for 15 days to form spore. The spores were scraped, filtered through a gauze and then suspended in potato dextrose liquid medium at a concentration of 1×10^6 spore/ml. The spore suspension was sprayed on a cucumber plant having one leaf. The cucumber plant was held in a humidified room at 20° C. for 3 days. L.A. on a leaf was measured to calculate an C.V.

SMILES	CGM (Fungicidal Activities, C.V.) [%]
CCc1ccc(C=C(F)Oc2cccc(C(C)=NOCc3ccccc3C(=NOC)C(=O)OC)c2)cc1 [Compound 69]	25
CNC(=O)C(=COC)c1ccccc1CON=C(C)c1cccc(OC(F)=Cc2cc(C)cc(C)c2)c1 [Compound 58]	8
COC=C(C(=O)OC)c1ccccc1CON=Cc1cccc(OC(F)=C(c2ccc(OC)cc2)C(F)(F)F)c1 [Compound 111]	17
COC=C(C(=O)OC)c1ccccc1CON=C(C)c1cccc(OC(F)=C(c2ccc(C)cc2)C(F)(F)F)c1 [Compound 152]	44

System: Pyricularia oryzae Carvara KA301
Experiment: not given
Assay type: in vivo
Conditions: Rice Blast; concentration 2 ppm

SMILES	RCV (Fungicidal Activities, C.V.) [%]
CCc1ccc(C=C(F)Oc2cccc(C(C)=NOCc3ccccc3C(=NOC)C(=O)OC)c2)cc1 [Compound 69]	100
COC=C(C(=O)OC)c1ccccc1CON=C(C)c1cccc(OC(F)=C(c2ccc(C)cc2)C(F)(F)F)c1 [Compound 152]	86

Same assay, conditions: Rice Blast; concentration 10 ppm

SMILES	RCV (Fungicidal Activities, C.V.) [%]
COC=C(C(=O)OC)c1ccccc1CON=C(C)c1cccc(OC(F)=C(c2ccc(C)cc2)C(F)(F)F)c1 [Compound 152]	97

Same assay, conditions: Rice Blast; concentration 50 ppm

SMILES	RCV (Fungicidal Activities, C.V.) [%]
CCc1ccc(C=C(F)Oc2cccc(C(C)=NOCc3ccccc3C(=NOC)C(=O)OC)c2)cc1 [Compound 69]	100
CNC(=O)C(=COC)c1ccccc1CON=C(C)c1cccc(OC(F)=Cc2cc(C)cc(C)c2)c1 [Compound 58]	100
COC=C(C(=O)OC)c1ccccc1CON=Cc1cccc(OC(F)=C(c2ccc(OC)cc2)C(F)(F)F)c1 [Compound 111]	0
COC=C(C(=O)OC)c1ccccc1CON=C(C)c1cccc(OC(F)=C(c2ccc(C)cc2)C(F)(F)F)c1 [Compound 152]	100

System: Puccinia recondita
Experiment: Fungicidal activity against Wheat Leaf Rust (WLR) disease
Assay type: in vivo
Conditions: Wheat Leaf Rust; concentration 2 ppm

SMILES	WLR (Fungicidal Activities, C.V.) [%]
CCc1ccc(C=C(F)Oc2cccc(C(C)=NOCc3ccccc3C(=NOC)C(=O)OC)c2)cc1 [Compound 69]	97
COC=C(C(=O)OC)c1ccccc1CON=Cc1cccc(OC(F)=C(c2ccc(OC)cc2)C(F)(F)F)c1 [Compound 111]	80
COC=C(C(=O)OC)c1ccccc1CON=C(C)c1cccc(OC(F)=C(c2ccc(C)cc2)C(F)(F)F)c1 [Compound 152]	86

Same assay, conditions: Wheat Leaf Rust; concentration 10 ppm

SMILES	WLR (Fungicidal Activities, C.V.) [%]
COC=C(C(=O)OC)c1ccccc1CON=Cc1cccc(OC(F)=C(c2ccc(OC)cc2)C(F)(F)F)c1 [Compound 111]	95
COC=C(C(=O)OC)c1ccccc1CON=C(C)c1cccc(OC(F)=C(c2ccc(C)cc2)C(F)(F)F)c1 [Compound 152]	98

Same assay, conditions: Wheat Leaf Rust; concentration 50 ppm

SMILES	WLR (Fungicidal Activities, C.V.) [%]
CCc1ccc(C=C(F)Oc2cccc(C(C)=NOCc3ccccc3C(=NOC)C(=O)OC)c2)cc1 [Compound 69]	100
CNC(=O)C(=COC)c1ccccc1CON=C(C)c1cccc(OC(F)=Cc2cc(C)cc(C)c2)c1 [Compound 58]	98
COC=C(C(=O)OC)c1ccccc1CON=Cc1cccc(OC(F)=C(c2ccc(OC)cc2)C(F)(F)F)c1 [Compound 111]	98
COC=C(C(=O)OC)c1ccccc1CON=C(C)c1cccc(OC(F)=C(c2ccc(C)cc2)C(F)(F)F)c1 [Compound 152]	100

System: Phytophthora infestans
Experiment: not given
Assay type: in vivo
Conditions: Tomato Late Blight; concentration 2 ppm

SMILES	TLB (Fungicidal Activities, C.V.) [%]
CCc1ccc(C=C(F)Oc2cccc(C(C)=NOCc3ccccc3C(=NOC)C(=O)OC)c2)cc1 [Compound 69]	25

Same assay, conditions: Tomato Late Blight; concentration 50 ppm

SMILES	TLB (Fungicidal Activities, C.V.) [%]
CCc1ccc(C=C(F)Oc2cccc(C(C)=NOCc3ccccc3C(=NOC)C(=O)OC)c2)cc1 [Compound 69]	60
CNC(=O)C(=COC)c1ccccc1CON=C(C)c1cccc(OC(F)=Cc2cc(C)cc(C)c2)c1 [Compound 58]	0
COC=C(C(=O)OC)c1ccccc1CON=Cc1cccc(OC(F)=C(c2ccc(OC)cc2)C(F)(F)F)c1 [Compound 111]	0
COC=C(C(=O)OC)c1ccccc1CON=C(C)c1cccc(OC(F)=C(c2ccc(C)cc2)C(F)(F)F)c1 [Compound 152]	0

System: Rhizoctonia solani AG-1
Experiment: Fungicidal activity against Rice Sheath Blight (RSB) disease
Conditions: Rice Sheath Blight; concentration 2 ppm

SMILES	RSB (Fungicidal Activities, C.V.) [%]
CCc1ccc(C=C(F)Oc2cccc(C(C)=NOCc3ccccc3C(=NOC)C(=O)OC)c2)cc1 [Compound 69]	30
COC=C(C(=O)OC)c1ccccc1CON=C(C)c1cccc(OC(F)=C(c2ccc(C)cc2)C(F)(F)F)c1 [Compound 152]	45

Same assay, conditions: Rice Sheath Blight; concentration 10 ppm

SMILES	RSB (Fungicidal Activities, C.V.) [%]
COC=C(C(=O)OC)c1ccccc1CON=C(C)c1cccc(OC(F)=C(c2ccc(C)cc2)C(F)(F)F)c1 [Compound 152]	60

Same assay, conditions: Rice Sheath Blight; concentration 50 ppm

SMILES	RSB (Fungicidal Activities, C.V.) [%]
CCc1ccc(C=C(F)Oc2cccc(C(C)=NOCc3ccccc3C(=NOC)C(=O)OC)c2)cc1 [Compound 69]	100
CNC(=O)C(=COC)c1ccccc1CON=C(C)c1cccc(OC(F)=Cc2cc(C)cc(C)c2)c1 [Compound 58]	23
COC=C(C(=O)OC)c1ccccc1CON=Cc1cccc(OC(F)=C(c2ccc(OC)cc2)C(F)(F)F)c1 [Compound 111]	0
COC=C(C(=O)OC)c1ccccc1CON=C(C)c1cccc(OC(F)=C(c2ccc(C)cc2)C(F)(F)F)c1 [Compound 152]	90

System: Erysiphae graminis
Experiment: Fungicidal activity against Barley Powdery Mildew (BPM) disease
Assay type: in vivo
Conditions: Barley Powdery Mildew; concentration 2 ppm

SMILES	BPM (Fungicidal Activities, C.V.) [%]
CCc1ccc(C=C(F)Oc2cccc(C(C)=NOCc3ccccc3C(=NOC)C(=O)OC)c2)cc1 [Compound 69]	99
COC=C(C(=O)OC)c1ccccc1CON=Cc1cccc(OC(F)=C(c2ccc(OC)cc2)C(F)(F)F)c1 [Compound 111]	95
COC=C(C(=O)OC)c1ccccc1CON=C(C)c1cccc(OC(F)=C(c2ccc(C)cc2)C(F)(F)F)c1 [Compound 152]	95

Same assay, conditions: Barley Powdery Mildew; concentration 10 ppm

SMILES	BPM (Fungicidal Activities, C.V.) [%]
COC=C(C(=O)OC)c1ccccc1CON=Cc1cccc(OC(F)=C(c2ccc(OC)cc2)C(F)(F)F)c1 [Compound 111]	100
COC=C(C(=O)OC)c1ccccc1CON=C(C)c1cccc(OC(F)=C(c2ccc(C)cc2)C(F)(F)F)c1 [Compound 152]	100

Same assay, conditions: Barley Powdery Mildew; concentration 50 ppm

SMILES	BPM (Fungicidal Activities, C.V.) [%]
CCc1ccc(C=C(F)Oc2cccc(C(C)=NOCc3ccccc3C(=NOC)C(=O)OC)c2)cc1 [Compound 69]	100
CNC(=O)C(=COC)c1ccccc1CON=C(C)c1cccc(OC(F)=Cc2cc(C)cc(C)c2)c1 [Compound 58]	98
COC=C(C(=O)OC)c1ccccc1CON=Cc1cccc(OC(F)=C(c2ccc(OC)cc2)C(F)(F)F)c1 [Compound 111]	100
COC=C(C(=O)OC)c1ccccc1CON=C(C)c1cccc(OC(F)=C(c2ccc(C)cc2)C(F)(F)F)c1 [Compound 152]	100

Reference: US6552080B1, “Fungicidal compounds having a fluorovinyl-or fluoropropenyl-oxyphenyloxime moiety and process for the preparation thereof” (Korea Research Institute of Chemical Technology, priority 1999, dated 2003)
